Measured values published in US8143254B2, “Methods for modulating ion channels” (Cornell Research Foundation, Inc., priority 2005, dated 2012).

Target: T1, Δ1-28 Kv3.4 channels (Homo sapiens, UniProt Q03721)
T1 construct: expressed in transfected cells; host or cells: Xenopus oocytes (cRNA injection)
T1 sequence (Q03721 29-635): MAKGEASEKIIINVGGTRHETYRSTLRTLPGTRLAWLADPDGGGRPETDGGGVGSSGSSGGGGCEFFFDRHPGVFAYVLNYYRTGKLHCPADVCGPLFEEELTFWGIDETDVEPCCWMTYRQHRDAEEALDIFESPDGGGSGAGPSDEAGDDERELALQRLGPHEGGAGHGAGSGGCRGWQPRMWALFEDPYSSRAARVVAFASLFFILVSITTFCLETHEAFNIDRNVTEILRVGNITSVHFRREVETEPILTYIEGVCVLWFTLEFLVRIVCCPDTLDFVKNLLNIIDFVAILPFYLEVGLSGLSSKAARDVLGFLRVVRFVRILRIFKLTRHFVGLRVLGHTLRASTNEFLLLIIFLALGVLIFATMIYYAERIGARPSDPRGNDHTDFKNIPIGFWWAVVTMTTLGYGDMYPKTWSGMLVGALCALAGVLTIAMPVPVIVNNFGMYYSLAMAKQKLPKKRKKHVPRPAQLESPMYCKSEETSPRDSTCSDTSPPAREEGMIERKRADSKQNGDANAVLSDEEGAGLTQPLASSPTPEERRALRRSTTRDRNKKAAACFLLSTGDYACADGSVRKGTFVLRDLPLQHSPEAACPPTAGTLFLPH
Assay: TEVC current-voltage relationship of Δ1-28 Kv3.4 in Xenopus oocytes
Format: cell-based
Conditions: 1 mM
Protocol: FIG. 6. Opening and block of Kv3.4 by two didabco compounds show voltage-dependency. Normalized I/V relationship for Δ1-28 Kv3.4 currents in oocytes in the absence (control) or presence as indicated of 1 mM JC279.3a or JC638.2a. Peak currents during 2 s pulses to voltages between −80 and +60 mV (protocol upper left insert) were recorded, before and after drug was washed in during successive 0.1 Hz, 2 s pulses from −80 to 0 mV until equilibrium block or opening was observed. Points are means from n=3-16 oocytes; error bars indicate SEM.
Whole-cell two-electrode voltage-clamp (TEVC) recordings were performed on X laevis oocytes expressing cloned Kv2.1, Kv3.4 or Kv4.2 using a Warner OC-725C amplifier and pClamp9 (Axon Instruments, Foster City, Calif.) software. Oocytes were bathed in a small-volume Warner oocyte bath and viewed with a Fisher dissection microscope. Bath solution for whole-cell oocyte recordings was (in mM): 96 NaCl, 4 KCl, 0.7 MgCl2, 1 CaCl2, 10 HEPES (pH 7.4); whole-cell oocyte TEVC pipettes were of 0.2-2 M resistance when filled with 3 M KCl. Experiments were performed 24-48 hours after cRNA injection. For assessment of current-voltage relationships in the absence or presence of dabco derivatives, oocytes were held at −80 mV, stepped for 2 seconds at voltages between −80 mV and +60 mV in 20 mV steps (Kv2.1) or between −80 and +50 mV in 10 mV steps (Kv3.4), then held for 500 ms at −40 mV before returning to the holding potential. For assessment of block during wash-in of dabco derivatives at a single voltage, oocytes were held at −80 mV, and repetitively stepped to 0 mV for 2 s with an interpulse interval of 10 s or 60 s as indicated. A range of concentrations of dabco or dabco derivatives were washed in via the bath solution during repetitive single-voltage pulses (after an initial period of 5 pulses with control solution to ensure current stabilization) until equilibrium block was achieved, to establish dose-responses. Inhibited currents are compared to the current at the end of 5-pulse control period, thus some bar graphs show ‘control’ current values slightly less than 1, and with an error bar, to show how much currents deviate in the absence of drug. Washout was performed after the highest concentration of blocker was washed in. […]
To investigate the mechanism of Kv channel block or opening by didabco compounds, the current-voltage relationship (I/V curve) of Δ1-28 Kv3.4 channels expressed in Xenopus oocytes was assessed using TEVC recording in the absence and presence of a didabco opener (JC279.3a, the 10 CH2-group didabco from FIG. 3) or a didabco blocker (JC638.2a, the para didabco from FIG. 4).

c1cc(C[N+]23CCN(CC2)CC3)ccc1C[N+]12CCN(CC1)CC2 [JC638.2α, α,α′-[bis(4-aza-1-azoniabicyclo[2.2.2]octanyl)]p-xylene]
block or opening of Δ1-28 Kv3.4: blocker | voltage dependence of block or opening of Kv3.4 (attenuated at more depolarized voltages): voltage-dependent
